Data as given in US20080064689A1, “3-[4-(6-Pyridin-3-Yl)-3-Phenyl] -5-(1H-1,2,3-Triazol-1-Ylmethyl)-1,3-Oxazolidin-2-Ones as Antibacterial Agents” (AstraZeneca AB, priority 2004, published 2008).
Converted amounts (≈) assume the structure as drawn. Where a name gives a salt, the structure may show the parent alone.

Assays:
MAO-A = biological target: T1, MAO-A (Homo sapiens, UniProt P21397); assay: MAO-A inhibition, standard in-vitro assay, human liver enzyme expressed in yeast; format: biochemical; conditions: read-out: Ki value against MAO-A
T1 construct: made in house; host or cells: yeast
T1 sequence (P21397 1-527): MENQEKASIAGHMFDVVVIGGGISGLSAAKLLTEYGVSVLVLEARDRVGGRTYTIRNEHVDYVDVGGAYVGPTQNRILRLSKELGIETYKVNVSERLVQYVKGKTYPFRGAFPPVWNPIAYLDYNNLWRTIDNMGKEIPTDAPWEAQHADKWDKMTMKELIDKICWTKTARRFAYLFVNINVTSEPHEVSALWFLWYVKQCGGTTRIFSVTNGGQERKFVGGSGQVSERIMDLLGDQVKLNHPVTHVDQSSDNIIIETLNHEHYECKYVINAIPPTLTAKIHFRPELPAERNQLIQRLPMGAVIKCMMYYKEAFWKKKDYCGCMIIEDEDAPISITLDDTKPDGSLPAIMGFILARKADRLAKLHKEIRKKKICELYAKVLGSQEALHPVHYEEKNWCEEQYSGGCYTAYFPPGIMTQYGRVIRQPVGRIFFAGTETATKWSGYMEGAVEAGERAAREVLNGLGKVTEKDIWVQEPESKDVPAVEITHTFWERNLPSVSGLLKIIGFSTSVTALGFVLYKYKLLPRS
Description: The activity of the compounds of the invention against MAO-A was tested using a standard in-vitro assay based on human liver enzyme expressed in yeast as described in Biochem. Biophys. Res. Commun. 1991, 181, 1084-1088.

[1] = tested on: Staphylococcus aureus MSQS (methicillin sensitive and quinolone sensitive); assay: MIC, agar dilution, Staphylococcus aureus MSQS; format: cell-based; conditions: inoculum 10^4 CFU/spot, 37° C., 24 hours
Description: (§1) The following results were obtained on a standard in-vitro test system. The activity is described in terms of the minimum inhibitory concentration (MIC) determined by the agar-dilution technique with an inoculum size of 10^4 CFU/spot. Typically, compounds are active in the range 0.01 to 256 μg/ml.
(§2) Staphylococci were tested on agar, using an inoculum of 10^4 CFU/spot and an incubation temperature of 37° C. for 24 hours—standard test conditions for the expression of methicillin resistance.

Moraxella catarrhalis = assay: MIC, Moraxella catarrhalis (fastidious Gram negative, broth); format: cell-based; conditions: Mueller-Hinton broth with hemin and NAD, 24 hours at 37° C., 5×10^4 CFU/well
Description: as §1
(§3) Streptococci and enterococci were tested on agar supplemented with 5% defibrinated horse blood, an inoculum of 10^4 CFU/spot and an incubation temperature of 37° C. in an atmosphere of 5% carbon dioxide for 48 hours—blood is required for the growth of some of the test organisms. Fastidious Gram negative organisms were tested in Mueller-Hinton broth, supplemented with hemin and NAD, grown aerobically for 24 hours at 37° C., and with an innoculum of 5×10^4 CFU/well.

[2] = tested on: Staphylococcus aureus MRQR (methicillin resistant and quinolone resistant); assay: MIC, agar dilution, Staphylococcus aureus MRQR; format: cell-based; conditions: inoculum 10^4 CFU/spot, 37° C., 24 hours
Description: as §1, §2

Streptococcus pneumoniae = assay: MIC, agar dilution, Streptococcus pneumoniae; format: cell-based; conditions: agar with 5% defibrinated horse blood, 10^4 CFU/spot, 37° C., 5% carbon dioxide, 48 hours
Description: as §1, §3

[3] = tested on: Linezolid Resistant Streptococcus pneumoniae; assay: MIC, agar dilution, Linezolid Resistant Streptococcus pneumoniae; format: cell-based; conditions: agar with 5% defibrinated horse blood, 10^4 CFU/spot, 37° C., 5% carbon dioxide, 48 hours
Description: as §1, §3

Haemophilus influenzae = assay: MIC, Haemophilus influenzae (fastidious Gram negative, broth); format: cell-based; conditions: Mueller-Hinton broth with hemin and NAD, 24 hours at 37° C., 5×10^4 CFU/well
Description: as §1, §3

| SMILES | melting point | also measured |
| --- | --- | --- |
| CC(C)[C@@H](N)C(=O)NC[C@@H]1CC(c2ccc(-c3ccc(N4C[C@H](Cn5ccnn5)OC4=O)cc3F)cn2)=NO1 (as salt: hydrochloride) [Example 21, N^1-{[(5S)-3-(5-{2-Fluoro-4-[(5R)-2-oxo-5-(1H-1,2,3-triazol-1-ylmethyl)-1,3-oxazolidin-3-yl]phenyl}pyridin-2-yl)-4,5-dihydroisoxazol-5-yl]methyl}-D-valinamide hydrochloride] | 130 to 134 °C |  |
| Br.O=C1O[C@@H](Cn2ccnn2)CN1c1ccc(-c2ccc(C3=NO[C@H](CN4CCOCC4)C3)nc2)c(F)c1 [Example 3b] | > 280 °C (dec.) |  |
| O=C1O[C@@H](Cn2ccnn2)CN1c1ccc(-c2ccc(C3=NO[C@H](CN4CC=CCC4)C3)nc2)c(F)c1 (as salt: hydrochloride) [Example 14, (5R)-3-(4-{6-[(5S)-5-(3,6-Dihydropyridin-1(2H)-ylmethyl)-4,5-dihydroisoxazol-3-yl]pyridin-3-yl}-3-fluorophenyl)-5-(1H-1,2,3-triazol-1-ylmethyl)-1,3-oxazolidin-2-one] | 250 to 255 °C |  |
| CN(CCO)C[C@@H]1CC(c2ccc(-c3ccc(N4C[C@H](Cn5ccnn5)OC4=O)cc3F)cn2)=NO1 [Example 10, (5R)-3-[3-Fluoro-4-[6-((5S)-5-{[(2-hydroxyethyl)(methyl)amino]methyl]-4,5-dihydroisoxazol-3-yl)pyridin-3-yl]phenyl}-5-(1H-1,2,3-triazol-1-ylmethyl)-1,3-oxazolidin-2-one] | 153 to 156 °C |  |
| N[C@@H](CCC(=O)O)C(=O)NC[C@@H]1CC(c2ccc(-c3ccc(N4C[C@H](Cn5ccnn5)OC4=O)cc3F)cn2)=NO1 (racemic) [Example 29, N^1-{[(5S)-3-(5-{2-Fluoro-4-[(SR)-2-oxo-5-(1H-1,2,3-triazol-1-ylmethyl)-1,3-oxazolidin-3-yl]phenyl}pyridin-2-yl)-4,5-dihydroisoxazol-5-yl]methyl}-L-α-glutamine] | 215 to 217 °C |  |
| CNC[C@@H]1CC(c2ccc(-c3ccc(N4C[C@H](Cn5ccnn5)OC4=O)cc3F)cn2)=NO1 [Example 2] | 215 °C |  |
| Cl.O=C1O[C@@H](Cn2ccnn2)CN1c1ccc(-c2ccc(C3=NO[C@H](CN4CCOCC4)C3)nc2)c(F)c1 | 242 °C |  |
| CN(C)CC(=O)NC[C@@H]1CC(c2ccc(-c3ccc(N4C[C@H](Cn5ccnn5)OC4=O)cc3F)cn2)=NO1 (as salt: hydrochloride) [Example 17, N^1-{[(5S)-3-(5-{2-Fluoro-4-[(5R)-2-oxo-5-(1H-1,2,3-triazol-1-ylmethyl)-1,3-oxazolidin-3-yl]phenyl}pyridin-2-yl)-4,5-dihydroisoxazol-5-yl]methyl}-N^2,N^2-dimethylglycinamide hydrochloride] | 202 to 204 °C |  |
| O=C1O[C@@H](Cn2ccnn2)CN1c1ccc(-c2ccc(C3=NO[C@H](CN4CCCCC4)C3)nc2)c(F)c1 (as salt: hydrochloride) [Example 13, (5R)-3-(3-Fluoro-4-{6-[(5S)-5-(piperidin-1-ylmethyl)-4,5-dihydroisoxazol-3-yl]pyridin-3-yl}phenyl)-5-(1H-1,2,3-triazol-1-ylmethyl)-1,3-oxazolidin-2-one] | 211 to 215 °C |  |
| O=C1O[C@@H](Cn2ccnn2)CN1c1ccc(-c2ccc(C3=NO[C@H](CN4CCOCC4)C3)nc2)c(F)c1 (as salt: sulfonic acid salt) [Example 3c, (5R)-3-(3-Fluoro-4-{6-[(5S)-5-(morpholin-4-ylmethyl)-4,5-dihydroisoxazol-3-yl]pyridin-3-yl}phenyl)-5-(1H-1,2,3-triazol-1-ylmethyl)-1,3-oxazolidin-2-one, methanesulfonic acid salt] | 165 to 168 °C |  |

Now from value to molecule, other results behind:

| melting point | SMILES | also measured |
| --- | --- | --- |
| 119 to 122 °C | NC[C@@H]1CC(c2ccc(-c3ccc(N4C[C@H](Cn5ccnn5)OC4=O)cc3F)cn2)=NO1 [Reference Example 16, (5R)-3-(4-{6-[(5S)-5-(Aminomethyl)-4,5-dihydroisoxazol-3-yl]pyridin-3-yl}-3-fluorophenyl)-5-(1H-1,2,3-triazol-1-ylmethyl)-1,3-oxazolidin-2-one] | Ki (MAO-A): 350 nM |
| 230 °C | O=C1O[C@@H](Cn2ccnn2)CN1c1ccc(-c2ccc(C3=NO[C@H](CN4CCOCC4)C3)nc2)c(F)c1 [Example 3, (5R)-3-(3-Fluoro-4-{6-[(5S)-5-(morpholin-4-ylmethyl)-4,5-dihydroisoxazol-3-yl]pyridin-3-yl}phenyl)-5-(1H-1,2,3-triazol-1-ylmethyl)-1,3-oxazolidin-2-one] | MIC [1]: 0.5 µg/mL (≈ 0.985 µM); MIC (Moraxella catarrhalis): 1 µg/mL (≈ 1.97 µM); MIC [2]: 0.5 µg/mL (≈ 0.985 µM); Ki (MAO-A): > 22000 nM; MIC (Streptococcus pneumoniae): 0.13 µg/mL (≈ 0.256 µM); MIC [3]: 1 µg/mL (≈ 1.97 µM); MIC (Haemophilus influenzae): 8 µg/mL (≈ 15.8 µM) |
| 190 °C | O=C1O[C@@H](Cn2ccnn2)CN1c1ccc(-c2ccc(C3=NO[C@H](CNCCO)C3)nc2)c(F)c1 [Example 5, (5R)-3-{3-Fluoro-4-[6-((5S)-5-{[(2-hydroxyethyl)amino]methyl}-4,5-dihydroisoxazol-3-yl)pyridin-3-yl]phenyl}-5-(1H-1,2,3-triazol-1-ylmethyl)-1,3-oxazolidin-2-one] |  |
| 122 to 132 °C | CN(C)CC(=O)N(C)C[C@@H]1CC(c2ccc(-c3ccc(N4C[C@H](Cn5ccnn5)OC4=O)cc3F)cn2)=NO1 (as salt: hydrochloride) [Example 23, N^1-{[(5S)-3-(5-{2-fluoro-4-[(5R)-2-oxo-5-(1H-1,2,3-triazol-1-ylmethyl)-1,3-oxazolidin-3-yl]phenyl}pyridin-2-yl)-4,5-dihydroisoxazol-5-yl]methyl}-N^1,N^2,N^2-trimethylglycinamide] |  |
| 218 to 220 °C | O=C1O[C@@H](Cn2ccnn2)CN1c1ccc(-c2ccc(C3=NO[C@H](CN4CC[S+]([O-])CC4)C3)nc2)c(F)c1 [Example 8, (5R)-3-[3-Fluoro-4-(6-{(5S)-5-[(1-oxidothiomorpholin-4-yl)methyl]-4,5-dihydroisoxazol-3-yl}pyridin-3-yl)phenyl]-5-(1H-1,2,3-triazol-1-ylmethyl)-1,3-oxazolidin-2-one] |  |
